Here are results for one sequence from article PMC6058519, “Retro-inverso follicle-stimulating hormone peptide-mediated polyethylenimine complexes for targeted ovarian cancer gene therapy” (Drug Delivery, 2018).

Where no end group is shown, it is not given here.

Data set [1] is described as follows: In vitro stability of peptides in 20% rat serum. The class given is in vitro ADME. The following applies: 37 °C, peptide 0.5 mg/mL, incubation up to 12 h, RP-HPLC C18, UV 214 nm, triplicate. The procedure:
The L-FP21 and D-FP21 peptides were diluted to 0.5 mg/mL and incubated at 37 °C for 12 h for the biostability test against 20% rat serum. At predetermined time intervals, 100 μL of the sample was removed and analyzed using reverse-phase high-performance liquid chromatography (HPLC; Waters Acquity H-Class Bio, Waters Co. Ltd., Milford, MA) on a bridged ethylene hybrid (BEH) C18 column (2.1 mm ×50 mm, 1.7 μm) using a gradient method. The mobile phase A was purified water containing 0.1% (v/v) formic acid (FA). The mobile phase B was acetonitrile containing 0.1% FA. The 30-min linear elution gradient ran from 5% B to 45% B in […] at a flow rate of 0.6 mL/min with a detection wavelength of 214 nm. We used aminopeptidase to further investigate the stability of L-FP21 or D-FP21 in proteolytic enzymes. The aminopeptidase was added with a final concentration of 1 μg/mL. The peptides were then analyzed as described above. All the experiments were performed in triplicate.

Data set [2] has as its target T1, Aminopeptidase M (leucine aminopeptidase, microsomal from porcine kidney) (Sus scrofa, UniProt P15145).
T1 construct: purchased Sigma-Aldrich; host or cells: porcine kidney microsomes (tissue-derived)
T1 sequence (P15145 1-963): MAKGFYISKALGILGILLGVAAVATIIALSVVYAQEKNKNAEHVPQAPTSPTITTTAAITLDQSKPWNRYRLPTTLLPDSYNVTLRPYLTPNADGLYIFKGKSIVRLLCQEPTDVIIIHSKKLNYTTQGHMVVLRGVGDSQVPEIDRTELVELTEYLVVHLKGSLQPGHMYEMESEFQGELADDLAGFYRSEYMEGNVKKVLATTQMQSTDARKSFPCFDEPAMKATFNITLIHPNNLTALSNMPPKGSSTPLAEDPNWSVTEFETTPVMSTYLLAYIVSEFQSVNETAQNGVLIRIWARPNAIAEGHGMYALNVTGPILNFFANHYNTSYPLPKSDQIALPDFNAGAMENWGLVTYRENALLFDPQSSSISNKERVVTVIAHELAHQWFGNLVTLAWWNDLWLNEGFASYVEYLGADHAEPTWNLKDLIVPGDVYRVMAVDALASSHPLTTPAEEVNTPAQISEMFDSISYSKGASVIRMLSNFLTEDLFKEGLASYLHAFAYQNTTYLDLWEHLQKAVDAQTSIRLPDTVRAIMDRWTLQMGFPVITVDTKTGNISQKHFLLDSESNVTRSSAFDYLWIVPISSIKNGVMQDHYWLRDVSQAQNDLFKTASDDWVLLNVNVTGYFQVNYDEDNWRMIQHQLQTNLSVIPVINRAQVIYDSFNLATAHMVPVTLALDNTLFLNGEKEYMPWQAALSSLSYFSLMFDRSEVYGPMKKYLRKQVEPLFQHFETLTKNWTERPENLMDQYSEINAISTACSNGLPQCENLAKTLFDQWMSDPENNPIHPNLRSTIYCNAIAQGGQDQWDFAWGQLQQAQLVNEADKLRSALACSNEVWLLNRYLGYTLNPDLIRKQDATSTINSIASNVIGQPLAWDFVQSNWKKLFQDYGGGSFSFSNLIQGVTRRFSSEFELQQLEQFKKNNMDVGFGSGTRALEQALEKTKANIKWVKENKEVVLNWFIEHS
Description: In vitro stability of peptides against aminopeptidase M. The note with it: aminopeptidase M 1 μg/mL, 37 °C, peptide 0.5 mg/mL, incubation up to 12 h, RP-HPLC C18, UV 214 nm, triplicate. Format: in vitro ADME. The text has this:
L-FP21, D-FP21, Rhodamine-L-FP21, and Rhodamine-D-FP21 were purchased from ChinaPeptides (Shanghai, China) (Figure S3). Rat serum was obtained from Jianlun Biology Technology Co. (Guangzhou, China). Aminopeptidase M (leucine aminopeptidase, microsomal from porcine kidney Type VI − S, lyophilized powder, EC 3.4.11.2) and the Endotoxin-free Plasmid Maxiprep Kit used to purify the plasmid DNA before application were obtained from Sigma–Aldrich (USA). Cell Counting Kit-8 (CCK-8 Kit) was purchased from Beyotime Biotechnology (Tianjing, China). Odyssey Blocking Buffer was obtained from LI-COR Biosciences (Lincoln, Nebraska, USA). The plasmids encoding enhanced green fluorescence protein (EGFP; pEGFP-N) were purchased from KeyGEN BioTECH (Nanjing, China). The vector construction of GRO-α shRNA was pcDNA6.2-GW/Emgfp-miR (Invitrogen, Carlsbad, CA), and the target knockdown gene encoding was TGGTTTT GGCCACTG. […]
The L-FP21 and D-FP21 peptides were diluted to 0.5 mg/mL and incubated at 37 °C for 12 h for the biostability test against 20% rat serum. At predetermined time intervals, 100 μL of the sample was removed and analyzed using reverse-phase high-performance liquid chromatography (HPLC; Waters Acquity H-Class Bio, Waters Co. Ltd., Milford, MA) on a bridged ethylene hybrid (BEH) C18 column (2.1 mm ×50 mm, 1.7 μm) using a gradient method. […] The peptides were then analyzed as described above. […]

On to YTRDLVYGDPARPGIQGTGTF [L-FP21], for which the “time to complete degradation in rat serum” value in data set [1] is given as no more than 2 h. The “time to complete degradation in aminopeptidase” value in data set [2] is listed as no more than 6 h.
